# “Also recorded” adds a separate entry of the source.
# Assays:
# [1] = tested on: binocular rivalry dynamics; test: Binocular rivalry task, double-blind placebo-controlled crossover, before and 3 h after donepezil or placebo; format: in vivo, human
# Source text: The binocular rivalry task consisted of a dichoptic stimulus where participants viewed a left-tilted grating in one eye and a right-tilted grating in the other for 90 s, continuously indicating via key-press whether they were seeing (1) the left eye's image, (2) the right eye's image, (3) a piecemeal mixture of the two images, or (4) a superimposed mixture of the two images (FIG. 1). This task was used to better characterize the mixed percepts while also encouraging participants not to miscategorize a mixed percept as exclusive.
# Binocular rivalry task. A previously developed (Skerswetat et al., 2018) binocular rivalry task was adapted to quantify the fractions and median durations of exclusive, piecemeal, superimposition, and overall mixed percepts (for illustrations, see FIG. 1B). At the beginning of each session, participants were shown images on a document that illustrated the differences between the left-oriented, right-oriented, and superimposition versus piecemeal mixed percepts. Participants were told that they would see a dynamic stimulus during the experiment and that their task was to track what they were seeing, with particular attention to timeliness and accuracy.
# Participants were given the option to continuously indicate whether they were seeing either (1) an exclusively left-tilted grating, (2) an exclusively right-tilted grating, (3) a superimposition mixed percept, or (4) a piecemeal mixed percept. Participants used three adjacent keys for the task, using the left to indicate exclusive left-tilt, right for right-tilt, a holding down a combination of the left and right keys for the piecemeal percepts, and the middle key for the superimposition percepts. It was specified that the criterion for exclusive percepts should be ˜90% left or right oriented.
# Experimental design and statistical analysis. […] Group assignment was counterbalanced across participants to control for possible session-order effects. The experimenter was not aware of the treatment condition of the two group assignments until after data collection was complete. For safety purposes, the experimenter recorded the participant's systolic blood pressure at baseline and monitored blood pressure levels throughout the experiment.
# The general protocol of each experimental block is outlined in FIG. 1A. Each block consisted of two binocular rivalry runs followed by two rivalry replay runs, each lasting 90 s.
# Each run (rivalry and replay) began with a dichoptic nonius cross presented inside a 3° oval surrounded by a black-and-white noise (1 cycle/degree) frame (side=10°). The observer was asked to make keypresses to adjust the position of the two frames to calibrate the optimal position for comfortable fusion. After confirmation, the participant was instructed to fixate at a fixation dot (0.2°) and place their hands on the appropriate keys to begin responding to the rivalry task. After a keypress, the dichoptic stimulus appeared and participants began responding to what they were observing on the monitor using the keypress instructions provided at the beginning of each session. Subsequent runs were initiated after a brief break where subjects viewed a mean-gray background screen. […] During the incubation period, subjects were instructed to keep both eyes open and do normal activities such as watching a movie or doing computer work in a well-lit room.
# Baseline and posttreatment measurements were drawn from four experimental blocks. A mandatory 2-min break was implemented between each experimental block to prevent fatigue.
# [2] = tested on: replay rivalry criterion and response latency; test: Rivalry replay control (criterion for mixed percept and response latency); format: in vivo, human; conditions: donepezil 5 mg oral vs placebo; F(1,22)=1.4
# Source text: To ensure any treatment effects were the result of changes in visual neural activity as opposed to changes in motor or executive function, a rivalry replay control experiment was implemented where participants watched computer-generated videos of simulated binocular rivalry, presented identically to both eyes. […] See FIG. 2 for additional details regarding the plots.
# Rivalry replay control. A rivalry replay control condition was used to characterize the criterion for categorizing a percept as mixed and to quantify the latency of binocular rivalry responses (Robertson et al., 2013, 2016). The replay control consisted of computer-generated videos presented binocularly, where the stimulus was oscillated from left-oriented gratings to right-oriented gratings along a continuous scale, such that the midpoint of this oscillation would produce a complete mixture of the two gratings. […]
# In addition, the overall rate of rivalry, defined as the total number of switches between the exclusive percepts divided by the run duration (Robertson et al., 2013, 2016) was extracted. In order to quantify the magnitude of the effect of the two treatment conditions relative to baseline, mean posttreatment values were divided by the mean baseline values to obtain post/pre ratios for each dependent variable across both experimental conditions. […]
# visual function = conditions: cited from earlier work
structure (smiles),measurement,setting,value
COc1cc2c(cc1OC)C(=O)C(CC1CCN(Cc3ccccc3)CC1)C2 (stereo not drawn) [donepezil],overall effect on binocular rivalry dynamics (repeated measures MANOVA of post/pre values),"[1]; donepezil 5 mg oral vs placebo, F(1,22)=2.68, p=0.04",significantly altered binocular rivalry dynamics
same,participants with increases in the fraction of mixed visibility,"[1]; donepezil 5 mg oral, 3 h, 23 participants",19 out of 23
same,individuals exhibiting donepezil-induced increases of 0.50% in fraction of mixed visibility,"[1]; donepezil 5 mg oral, 3 h, of the 19 participants with increases",eight
same,decrease of rate of binocular rivalry,"[1]; po, 5 mg, 3 h",36%
same,enhancement of fraction of aggregate mixed visibility during rivalry,"[1]; po, 5 mg, 3 h",43%
same,enhancement of fraction visibility of superimposition percepts,"[1]; po, 5 mg, 3 h",70%
same,increase of median duration of mixed visibility,"[1]; po, 5 mg, 3 h",20%
same,increase of median duration of piecemeal percepts,"[1]; po, 5 mg, 3 h",49%
same,increase of median duration of superimposition percepts,"[1]; po, 5 mg, 3 h",54%
same,reduction of fraction of exclusive percepts,"[1]; po, 5 mg, 3 h",59%
same,reduction of fraction of piecemeal percepts,"[1]; po, 5 mg, 3 h",15%
same,reduction of median duration of exclusive percepts,"[1]; po, 5 mg, 3 h",78%
same,effect on criterion and response latency in rivalry replay control (MANOVA),[2],no observable differences; also recorded: not significant
same,effect on monocular visual function using perceptual learning,"visual function; Chung et al., 2017",not useful to improve monocular visual function
same,effect on perceptual eye dominance changes from short term patching of one eye,"visual function; Sheynin et al., 2019",impede perceptual eye dominance changes

# — patent US20220323426A1, “CHOLINERGIC POTENTIATION OF BINOCULAR VISION” (THE ROYAL INSTITUTION FOR THE ADVANCEMENT OF LEARNING / …, priority 2019, published 2022)
